Like-named read-outs stand apart in the source and are kept apart here.
Legend:
MtbFDTS [1] = biological target: T1, MtbFDTS (Mycobacterium tuberculosis, UniProt P9WG57); assay: MtbFDTS oxidase reaction followed by NADPH consumption; assay type: biochemical; conditions: for increase in the rate of NADPH consumption: relative to control without ligand, >10× KACT, up to 250 μM ligand; for effect on the oxidase reaction (NADPH oxidation rate), in words: aerobic, no CH2H4folate, ligand up to 250 μM
MtbFDTS [2] = biological target: T1, MtbFDTS; assay: Hydrogen peroxide formation from MtbFDTS oxidase reaction; assay type: biochemical; conditions: NADPH and 100 μM plumbagin versus NADPH only
FAD-MtbFDTS complex = FAD-MtbFDTS complex (Mycobacterium tuberculosis, UniProt P9WG57); assay: biochemical; assay type: binding
FAD-MtbFDTS complex, sequence (P9WG57 whole entry, one chain of several): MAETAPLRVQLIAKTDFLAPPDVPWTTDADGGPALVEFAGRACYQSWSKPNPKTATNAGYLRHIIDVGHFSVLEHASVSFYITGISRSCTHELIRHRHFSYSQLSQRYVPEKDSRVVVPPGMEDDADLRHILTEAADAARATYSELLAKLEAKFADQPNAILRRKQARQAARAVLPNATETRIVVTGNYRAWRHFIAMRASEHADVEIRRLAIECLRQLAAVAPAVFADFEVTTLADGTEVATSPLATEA

T1 sequence (P9WG57 whole entry): as the sequence (P9WG57 whole entry, one chain of several) above

5-hydroxy-2,4-naphthoquinone [plumbagin]
increase in the rate of NADPH consumption (MtbFDTS [1]): 5–10 fold
rate increase of hydrogen peroxide formation (initial velocity) (MtbFDTS [2]): ~10 fold

Nc1nc(=O)c2c([nH]1)NCC(CNc1ccc(C(=O)N[C@@H](CCC(=O)O)C(=O)O)cc1)N2C=O (mixture of isomers) [folinic acid]
Kd (FAD-MtbFDTS complex; read-out: apparent Kd, binding to the FAD-MtbFDTS complex): 1.3 ± 0.2 µM
affinity of folinic acid for the dUMP-FAD-MtbFDTS ternary complex, in words (FAD-MtbFDTS complex; saturating concentration of dUMP, compared with FAD-MtbFDTS): much higher affinity
effect on the oxidase reaction (NADPH oxidation rate), in words (MtbFDTS [1]): display inhibition

O=c1[nH]c(=O)n([C@H]2C[C@H](O)[C@@H](COP(=O)(O)O)O2)cc1F [5-FdUMP, 5-fluoro-deoxyuridylate]
affinity to the FAD-MtbFDTS complex, in words (FAD-MtbFDTS complex; compared with dUMP): less affinity

Cc1cn([C@H]2C[C@H](O)[C@@H](COP(=O)(O)O)O2)c(=O)[nH]c1=O [dTMP, 2′-deoxythymidine-5′-monophosphate]
effect on the oxidase reaction (NADPH oxidation rate), in words (MtbFDTS [1]): activated

O=c1ccn([C@H]2C[C@H](O)[C@@H](COP(=O)(O)O)O2)c(=O)[nH]1 [dUMP, 2′-deoxyuridine-5′-monophosphate]
Kd (FAD-MtbFDTS complex): 1.1 ± 0.5 µM
effect on the oxidase reaction (NADPH oxidation rate), in words (MtbFDTS [1]): increase in rate

O=C1C=C(O)C(=O)c2ccccc21 [lawsone, 2-hydroxy-1,4-naphthoquinone]
increase in the rate of NADPH consumption (MtbFDTS [1]): 5–10 fold

CN(Cc1cnc2nc(N)nc(N)c2n1)c1ccc(C(=O)N[C@@H](CCC(=O)O)C(=O)O)cc1 [methotrexate]
effect on the oxidase reaction (NADPH oxidation rate), in words (MtbFDTS [1]): display inhibition
